Common to all, as to format: cell-based
The subject of one assay is NIH3T3 fibroblasts. Description: SRB colorimetric assay of cell growth. The following applies: 1, 10 and 50 μg/ml, 72 hr, absorbance at 590 nm. As for the experimental part: In order to evaluate three peptides prepared in Preparation Example 1 whether they have similar activities of growth factor, SRB (Sulforhodamine B; Sigma-Aldrich) colorimetric assay was carried out using HaCaT kerationcytes (Korean Cell Line Bank) and NIH3T3 fibroblasts (Korean Cell Line Bank) according to Rizzino et al. method (Rizzino, et al. Cancer Res., 48: 4266 (1988)).
HaCaT ketatinocytes and NIH3T3 fibroblasts were cultured in 250 ml-flasks containing EMEM (Eagle's minimal essential media; Gibco, USA) supplemented with 10% FBS (fetal bovine serum; Sigma). Cells cultured were treated with 1% trypsin solution to detach cells from the bottom of culture flasks and centrifuged to collect cell pellets. After cells were resuspended in EMEM not containing FBS, its aliquot (3×10^3 cells) was added to each well of 96-well plates and cultured under 5% CO2 for 24 hr at 37° C. After 24-hr culture, the medium was changed with a fresh medium without serum and cells were incubated with empty sample (for normalization) and peptides synthesized aseptically dissolved in […] distilled water with the respective concentrations of 1 μg/ml, 10 μg/ml and 50 μg/ml for 72 hr under the same conditions as described above. After removing supernatants, cells were fixed with ethanol and then washed three times using PBS (phosphate buffered saline), followed by incubation with SRB solution. Cells were sufficiently washed with 1% acetic acid and observed under a microscope to find living cell condition. In addition, absorbance at 590 nm was measured to analyze cell viability.

In another assay the test system is Shh protein. The assay is described as follows: Western blot of Shh protein expression. The following applies: keratinocytes, 10 μg/ml, 24 hr. The method, then: To verify whether the peptides synthesized in preparation Example 1 enhances the expression of Shh protein which is known as EDA1 target molecule and to stimulate the hair follicle, kerationcytes (3×10^5 cells) was added to each well of 96-well plates and cultured under 5% CO2 for 24 hr at 37° C. After 24-hr culture, the medium was changed with a fresh medium without serum and cells were treated with empty sample (for normalization) and peptides synthesized aseptically dissolved in distilled water with the concentration of 10 μg/ml and cultured for 24 hr under the same conditions as described above. After that, the cell culture was collected and the expression level of Shh was measured through Western blotting using the specific antibody to Shh protein.

The next assay relates to IκB. Description: Western blot of IκB degradation (EDA1-EDAR signal). Conditions: HaCaT keratinocytes, 20 min. The method, then: (§1) HaCaT kerationcytes were incubated with the peptides synthesized in preparation Example 1 for 20 min. The translocation of NF-κB into nucleus through the phosphorylation of IκB was examined as a representative signaling of EDA protein. The respective effect was measured by Western blot analysis using an antibody against IκB and NF-κB (SantaCruz, USA). The effect of IκB degradation through phosphorylation and uniquitination in a concentration dependent manner of the treated peptides of this invention was confirmed (FIGS. 3a and 3b). Furthermore, the activation and nucleus translocation of NF-κB was also observed after degradation of IκB (FIGS. 4a and 4b). […] The expression levels of the above mentioned proteins of IL-1b, IL-6, and COX-2 were increased with the translocations of NF-κB into nucleus which is induced by the treatments of the peptides.

For the next assay, the system named is IL-1b, IL-6, and COX-2. Description: RT-PCR of NF-κB-induced genes. Conditions: HaCaT keratinocytes. The method, then:
as §1

The next assay relates to NF-κB. Description: Western blot of NF-κB translocation into nucleus. The following applies: HaCaT keratinocytes, 20 min. The method, then: as §1

Where no end group is shown, it is not given here.

With LLADTTHHRPWT [compound 2], the growth of fibroblasts entry in the assay with NIH3T3 fibroblasts is “notably increases”; in the assay on NIH3T3 fibroblasts (listed as SEQ ID NO:2) it was “stimulatory effect”. Moreover, the “expression of Shh protein” value in the assay with Shh protein is on record as “remarkably enhanced”. The “cellular amount of IκB protein (degradation through phosphorylation and ubiquitination)” value in the assay on IκB was “reduced”. Moreover, the “expression of COX-2, IL-6, IL-1b” value in the assay with IL-1b, IL-6, and COX-2 is recorded as “remarkably enhanced”. Moreover, the “translocation of NF-κB into nucleus” value in the assay with NF-κB was “translocation of NF-κB into nucleus after activation”.

Consider NMSKHTTFFGA, for which the growth of fibroblasts entry with NIH3T3 fibroblasts is listed as “notably increases”; in the assay on NIH3T3 fibroblasts (listed as SEQ ID NO:1), “stimulatory effect”. Also, the “expression of Shh protein” value in the assay on Shh protein is reported as “remarkably enhanced”. For the same sequence, the “cellular amount of IκB protein (degradation through phosphorylation and ubiquitination)” value with IκB is listed as “reduced”. The “expression of COX-2, IL-6, IL-1b” value with IL-1b, IL-6, and COX-2 was “remarkably enhanced”. Besides, the “translocation of NF-κB into nucleus” value in the assay with NF-κB is on record as “translocation of NF-κB into nucleus after activation”.

The values above are taken from patent publication US9550078B2, “EDAR ligand derived peptides and use thereof” (CAREGEN CO., LTD., priority 2011, dated 2017).
